Source: patent publication US20070135488A1, “Amlodipine nicotinate and process for the preparation thereof” (priority 2002, published 2007)
Like-named read-outs stand apart in the source and are kept apart here.

Experiments:
[1] = Chemical stability (stability test under stress condition); format: physicochemical; conditions: tablets in sealed vials, 50° C., 60% relative humidity, three weeks, TLC
Procedure: In order to assess the chemical stability, amlodipine besylate and amlodipine nicotinate were blended in a powder vehicle and formed into tablets. The vehicle for tablets comprised microcrystalline cellulose and anhydrous dibasic calcium phosphate in 50:50. The tablets were then stored in sealed vials at 50° C. and at 60% relative humidity for three weeks.
FIGS. 4A and 4B show H-NMR charts of amlodipine besylate before and after the stability test, respectively, and FIGS. 5A and 5B show H-NMR charts of amlodipine nicotinate before and after the stability test, respectively. The peaks on NMR of amlodipine besylate are as follows: […]

[2] = Solubility measurement (water solubility and pH at saturation); format: physicochemical; conditions: distilled water, room temperature; for solubility: ultrasonic waves, maximal solubilized amount
Procedure: Water solubilities were measured for amlodipine besylate prepared in accordance with U.S. Pat. No. 4,879,303 and amlodipine nicotinate obtained in Example 1. By using 50 ml of distilled water and ultrasonic waves, maximal solubilized amounts were measured at a room temperature and pHs at saturation were measured using Fischer Scientific Accument (PH meter 15).

[3] = tested on: spontaneously hypertensive rats (SHRs); experiment: In vivo anti-hypertensive activity, systolic blood pressure by tail-cuff method; design: species or system rat; conditions: SHR; for Maximal anti-hypertensive effect (change of systolic blood pressure) / Intensity (maximal effect of amlodipine nicotinate to maximal effect of amlodipine besylate) / ED20 (amount necessary for 20% decrease in the blood pressure) / Intensity (reverse ratio of ED20 values relative to amlodipine besylate): oral; for Maximal anti-hypertensive effect (change of systolic blood pressure): mean % ± S.E.M.
Procedure: Cardiovascular effects, i.e., in vivo anti-hypertensive activities, were measured for amlodipine besylate prepared in accordance with U.S. Pat. No. 4,879,303 and amlodipine nicotinate prepared in Example 1, using spontaneously hypertensive rats (SHRs), by Korea Research Institute of Chemical Technology (Screening Center, #100, Jang-dong, Yuseong-gu, Daejeon).
Male SHRs (Charles Rever Co., Japan) aged 13-14 weeks were used. Before evaluation, the SHRs were accustomed in a clean breeding chamber under conditions of a temperature of 22.5±1° C., a relative humidity of 55±5% and a lighting time of 12 hour intervals.
The SHRs having a systolic blood pressure over 170 mmHg were divided into 7 groups, i.e., Test Groups 1 to 3 (for amlodipine besylate), Test Groups 4 to 6 (for amlodipine nicotinate) and a Control Group. Each Test Group and Control Group consisted of 6-8 SHRs (n=6-8).
The test compounds were dissolved in distilled water to prepare test solutions immediately prior to administration. The test solutions of amlodipine besylate and amlodipine nicotinate were prepared by dissolving 1, 3, and 10 mg/kg in distilled water (0.5 ml/100 g rat), respectively, and then administered orally to each Test Group. The vehicle (distilled water) was administered to Control Group.
The systolic blood pressure was measured with Multichannel 8000 (TSE Co., Germany), using a tail-cuff method. That is, the systolic blood pressures of a tail artery of each rat were measured before the administration of the test solutions and after 2, 4, 6, 8, 10, and 24 hours from the administration thereof. In order to facilitate the measurement of blood pressures, the test animals of each Group underwent warming at 37° C. for about 10 minutes before the measurements.
The results of the foregoing test were expressed by a mean percentage and standard error (mean %±S.E.M.). Statistical analysis of the test results were conducted by an unpaired t-test and ANOVA (one-way analysis of variance) with Sigma Stat program (Jandel Co., USA). The secondary evaluations were conducted by a Dunnett's multiple comparison test.

Hygroscopicity test = format: physicochemical; conditions: 60% relative humidity, 50° C., 14 days
Procedure: 1.0 g of amlodipine besylate prepared in accordance with U.S. Pat. No. 4,879,303 and 1.0 g of amlodipine nicotinate dihydrate obtained in Example 1 were exposed to 60% relative humidity at 50° C. for 14 days.

Photostability = format: physicochemical; conditions: 25-30° C., 2 weeks, incandescent lamp (220V, 100 W) 30 cm above
Procedure: 1.0 g of amlodipine besylate prepared in accordance with U.S. Pat. No. 4,879,303 and 1.0 g of amlodipine nicotinate dihydrate obtained in Example 1, which were placed in glass schales (100×20 mm), were exposed at 25-30° C. for 2 weeks under an incandescent lamp (220V, 100 W) that was placed at 30 cm above the samples. […] FIGS. 6A and 6B show H-NMR charts of amlodipine besylate before and after the photostability test, respectively. The peaks on NMR of amlodipine besylate are as follows: […]

[4] = Processability test (stickiness to tablet punch); format: physicochemical; conditions: amount adhering to tablet punch; for Stickiness: Amlodipine(μg)/cm^2 (tablet): average from slope over runs of 50-300 tablets
Procedure: Using a conventional tablet making machinery, fifty tablets containing calcium sulphate dihydrate, microcrystalline cellulose and amlodipine nicotinate dihydrate (47.5:47.5:5) were produced. The material adhering to the tablet punch was then extracted using methanol and the amount was measured spectrometrically. This procedure was then repeated for runs of 100, 150, […], 250 and 300 tablets. After each run the amount of material adhering to the tablet punch was measured in the same process as above. The values were plotted and an average value was calculated from the slope of the line produced. The same procedure was then repeated for amlodipine besylate. The amount of amlodipine measured as adhering to the tablet punch is shown in Table 2 for amlodipine nicotinate dihydrate with relative to amlodipine besylate.

[5] = 1 mg/kg, listed as Nicotinate salt, dihydrate
[6] = listed as amlodipine nicotinate, dihydrate

SMILES: CCOC(=O)C1=C(COCCN)NC(C)=C(C(=O)OC)C1c1ccccc1Cl (centres unmarked) [Amlodipine nicotinate, amlodipine nicotinate dihydrate]
- breakdown products after stability test ([1]; dihydrate): no breakdown product
- pH at saturation ([2]; dihydrate): 7.2
- solubility ([2]; dihydrate): 6.8 mg/mL
- Maximal anti-hypertensive effect (change of systolic blood pressure) [3, 5]: −10.20 ± 2.71%
- Intensity (maximal effect of amlodipine nicotinate to maximal effect of amlodipine besylate) ([3]; 1 mg/kg, dihydrate): about 1.46
- Intensity (maximal effect of amlodipine nicotinate to maximal effect of amlodipine besylate) [3, 5]: 1.46
- Intensity (maximal effect of amlodipine nicotinate to maximal effect of amlodipine besylate) ([3]; 3 mg/kg): 1.07
- Maximal anti-hypertensive effect (change of systolic blood pressure) ([3]; 3 mg/kg, listed as Nicotinate salt, dihydrate): −26.8 ± 3.22%
- Intensity (maximal effect of amlodipine nicotinate to maximal effect of amlodipine besylate) ([3]; 10 mg/kg): 1.06
- Maximal anti-hypertensive effect (change of systolic blood pressure) ([3]; 10 mg/kg, listed as Nicotinate salt, dihydrate): −40.9 ± 2.08%
- ED20 (amount necessary for 20% decrease in the blood pressure) ([3]; dihydrate): 2.19 ± 0.57 mg/kg
- Intensity (reverse ratio of ED20 values relative to amlodipine besylate) ([3]; dihydrate): 1.13
- ED20 (amount necessary for 20% decrease in the blood pressure) [3, 6]: 2.19 ± 0.57 mg/kg
- Intensity (reverse ratio of ED20 values relative to amlodipine besylate) [3, 6]: about 1.13
- hygroscopicity (state after exposure) (Hygroscopicity test; dihydrate): remained intact
- color change after photostability test (Photostability; dihydrate): no color change
- Stickiness: Amlodipine(μg)/cm^2 (tablet) ([4]; dihydrate): 0.44 μg/cm^2 (tablet)
- Stickiness relative to besylate ([4]; dihydrate): 36.7%

SMILES: CCOC(=O)C1=C(COCCN)NC(C)=C(C(=O)OC)C1c1ccccc1Cl (centres unmarked) [Amlodipine besylate, amlodipine besylate, reference compound]
- breakdown products after stability test [1]: breakdown products
- pH at saturation [2]: 6.6
- solubility ([2]; water, thermodynamic from solid, read-out: Solubility): 4.6 mg/mL
- ED20 (amount necessary for 20% decrease in the blood pressure) [3]: 2.48 ± 0.46 mg/kg
- Intensity (reverse ratio of ED20 values relative to amlodipine besylate) [3]: 1.00
- Maximal anti-hypertensive effect (change of systolic blood pressure) ([3]; 1 mg/kg, listed as Besylate salt): −7.0 ± 1.66%
- Maximal anti-hypertensive effect (change of systolic blood pressure) ([3]; 3 mg/kg, listed as Besylate salt): −25.0 ± 1.98%
- Maximal anti-hypertensive effect (change of systolic blood pressure) ([3]; 10 mg/kg, listed as Besylate salt): −38.7 ± 2.18%
- effect on blood pressure ([3]; oral, 1, 3 and 10 mg/kg): dose-dependently reduced blood pressures
- ED20 (amount necessary for 20% decrease in the blood pressure) ([3]; listed as amlodipine besylate): 2.48 ± 0.46 mg/kg
- hygroscopicity (state after exposure) (Hygroscopicity test): remained anhydrous
- color change after photostability test (Photostability): discolored to yellow
- Stickiness relative to besylate [4]: 100.0%
- Stickiness: Amlodipine(μg)/cm^2 (tablet) [4]: 1.20 μg/cm^2 (tablet)
